Laboratory results: patent EP0526258A2, “A87689 Compounds, their production and use as phospholipase-A2 inhibitors” (ELI LILLY AND COMPANY, priority 1991, dated 1993)

System: lipoidalamine-induced arthritis
Experiment: Lipoidalamine-induced arthritis model
Format: in vivo
Conditions: rat, positive control, 0.1 mg/kg orally
From the text: The lipoidalamine-induced arthritis test is a model of systemic inflammation and arthritis induced by the adjuvant substance N, N-dioctadecyl-N′,N′-bis(2-hydroxyethyl)propanediamine (LA) suspended in mineral oil. The disease that results is very similar to that occurring in Freund's complete adjuvant (FCA) treated rats according to Chang [Chang, Y., Pearson, C. M., and Abe, C., "Adjuvant polyarthritis IV. Induction by a synthetic adjuvant: immunologic, histopathologic, and other studies," Arth. Rheum.23: 62-71, (1980)]. Inflammation occurs in many tissues but is most striking in the spleen and joints. Compounds are tested for their ability to modulate splenic and joint inflammation in established disease (treatment starts on day 9).
The animals (Lewis/Sprague Dawley, males, 200-220 grams) are divided into groups of 5 and housed in hanging cages with food and water ad libitum. On day 0 they are injected with 7.5 mg of LA subcutaneously at the base of the tail. On day 9 the animals are weighed and compound administration is started. The compounds are suspended, using a tissue homogenizer, in a 1% CMC solution. The screening dose is 50 mg/kg orally. Compounds are administered once daily for 5 days (days 9-13) with no dosing on day 14. On day 15 the animals are weighed again and hind paw volume measured using a water manometer. The animals are then anesthetized and bled via cardiac puncture. After the animals are euthanized, the spleen is removed and weighed and the hind feet are removed just above the ankle joint and weighed. The individual blood samples are analyzed for fibrinogen. Means and standard errors for all of these parameters are then calculated, and percent differences from the diseased (LA) control are figured. Statistical significance is determined utilizing the Dunnet T calculation on the raw data. The positive control for the LA arthritis test is dexamethasone. Dexamethasone at a dose of 0.1 mg/kg orally will inhibit paw swelling by 80-90% and spleen weight by 90-100%. […]

SMILES: C[C@@H]1C[C@H]2[C@@H]3CCC4=CC(=O)C=C[C@]4(C)[C@@]3(F)[C@@H](O)C[C@]2(C)[C@@]1(O)C(=O)CO [Dexamethasone, dexamethasone]
- inhibit paw swelling: 80-90%
- inhibit spleen weight: 90-100%
- fibrinogen inhibited (more variable): 50-70%
